Results on one molecule are retold here after article PMC10850954, “HDAC6/aggresome processing pathway importance for inflammasome formation is context-dependent” (The Journal of Biological Chemistry, 2024).

Series [1] deals with T1, HDAC6 (Homo sapiens, UniProt Q9UBN7).
T1 sequence (Q9UBN7 1-1215): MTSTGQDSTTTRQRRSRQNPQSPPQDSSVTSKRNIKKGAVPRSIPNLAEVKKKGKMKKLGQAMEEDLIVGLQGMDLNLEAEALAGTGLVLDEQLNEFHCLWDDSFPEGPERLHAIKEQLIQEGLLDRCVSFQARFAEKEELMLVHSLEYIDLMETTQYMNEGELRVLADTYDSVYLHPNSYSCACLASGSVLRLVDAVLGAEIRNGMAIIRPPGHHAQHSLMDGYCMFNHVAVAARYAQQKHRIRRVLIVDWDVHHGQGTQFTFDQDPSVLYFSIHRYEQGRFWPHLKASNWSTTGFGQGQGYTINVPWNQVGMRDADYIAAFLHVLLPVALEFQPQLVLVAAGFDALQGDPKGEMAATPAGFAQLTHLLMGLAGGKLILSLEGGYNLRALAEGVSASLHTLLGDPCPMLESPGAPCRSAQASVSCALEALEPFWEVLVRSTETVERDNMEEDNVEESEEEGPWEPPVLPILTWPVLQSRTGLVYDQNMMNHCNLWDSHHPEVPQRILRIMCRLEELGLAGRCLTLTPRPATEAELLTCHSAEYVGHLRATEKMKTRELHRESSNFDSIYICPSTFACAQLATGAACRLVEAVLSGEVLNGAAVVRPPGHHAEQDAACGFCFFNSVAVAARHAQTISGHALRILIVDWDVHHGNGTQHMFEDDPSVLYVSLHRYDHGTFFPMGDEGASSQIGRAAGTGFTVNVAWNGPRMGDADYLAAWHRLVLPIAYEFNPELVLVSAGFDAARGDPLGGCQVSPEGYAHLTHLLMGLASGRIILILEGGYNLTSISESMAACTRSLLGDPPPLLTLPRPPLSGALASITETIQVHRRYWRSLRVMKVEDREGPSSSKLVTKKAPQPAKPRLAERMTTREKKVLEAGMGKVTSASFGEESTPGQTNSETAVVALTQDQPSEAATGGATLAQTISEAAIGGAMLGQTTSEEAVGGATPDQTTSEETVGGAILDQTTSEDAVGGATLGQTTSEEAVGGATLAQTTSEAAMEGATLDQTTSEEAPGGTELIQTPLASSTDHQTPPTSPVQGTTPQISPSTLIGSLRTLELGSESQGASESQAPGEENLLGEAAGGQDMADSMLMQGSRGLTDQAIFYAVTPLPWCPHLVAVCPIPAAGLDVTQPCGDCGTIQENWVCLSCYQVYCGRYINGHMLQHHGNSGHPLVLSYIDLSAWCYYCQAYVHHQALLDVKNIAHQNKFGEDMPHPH
The series can be described thus: HDAC6 degradation in THP-1 cells (immunoblot). Type of series: cell-based. Also on record: endogenous in cells; host or cells: PBMCs (with or without LPS priming). The settings on record: non-differentiated and PMA-differentiated THP-1 cells.

For series [2], the target named is T1, HDAC6. Also on record: method as in PMID 34314730. As to conditions: cited from earlier work.
Series [3] deals with U937 cells. Put plainly: CTG cell viability assay. Type of series: cell-based, human. As to conditions: U937, broad concentration range, 70 h. On the procedure:
U937, Jurkat, and HEK293T cells were plated with a density of 10^5 cells/ml, with 50 μl/well in a white 384 well plate (Corning #3570). Two hours after plating, XY-07-035 was dispensed to each well using HPd300e and incubated at 37 °C for 70 h. CellTiter-Glo (CTG) Luminescent Cell Viability Assay (Promega #G7572) was then used to measure cell viability. Aliquoted frozen CTG reagent and cell plates were warmed to room temperature prior to loading. After the plates were cooled to room temperature, the CTG reagent was loaded 15 μl/well with an electronic multichannel pipette. […] The luminescence signal was read over ten cycles for each data point on a PHERAstar FS microplate reader (BMG Labtech). The Relative abundance was calculated as the sum of the averages of duplicate individual 12-point dose-response data points.
Supplementary file mmc1.pdf: Supporting Figure S1 BMDM cells were primed by LPS (1 μg/ml) for 4 hrs and then challenged with 20 μM nigericin. 50 μl supernatant was collected every 15 min (up to 90 min) and mIL-1β level was determined by HTRF assay. […] DARPin F10 was detected by anti-HA antibody. […] Cells were treated with different concentrations of the degrader, and cell viability determined by CTG assay was normalized to the non-treated group. […] Supporting Figure S4: Cell viability was measured by resazurin assay, and fluorescence intensity was a representative of the viability.

Take `CN(C(=O)CCCNc1cccc2c1C(=O)N(C1CCC(=O)NC1=O)C2=O)c1ccc(NC(=O)CCCCCCC(=O)NO)cc1` (stereo not drawn) [XY-07-35]: the HDAC6 degradation entry in series [1] is “did not lead to HDAC6 degradation”. Further, in series [2], the “degradation profile (specificity)” value is “highly specific for HDAC6”. Also, the cellular toxicity entry in series [3] was “does not show cellular toxicity”.
